Laboratory results: patent US20220259593A1, “CONTROL OF MAMMALIAN GENE DOSAGE USING CRISPR” (The Regents of the University of California, priority 2019, published 2022)

Tests used:
K562 CRISPRi cells [1] = assay: Perturb-seq pooled growth measurement (sgRNA counts, growth phenotype γ, relative activity); type: cell-based, human; details: γ relative to perfectly matched sgRNA (_00) of the same gene, day 10
K562 CRISPRi cells [2] = assay: as above; type: cell-based, human; details: for gamma_day5 / gamma_day10: pooled growth phenotype γ of the Perturb-seq sgRNA; for gamma_day5: day 5, K562 CRISPRi cells; for gamma_day10: day 10, K562 CRISPRi cells; for relative_activity_day5: γ relative to perfectly matched sgRNA (_00) of the same gene, day 5
In short: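 sgRNA abundance was sequenced from genomic DNA of the same transduced population sampled on days two, seven and twelve. Phenotype γ compares normalized day seven and twelve counts with day two. Day-seven values (five days of growth) define relative sgRNA activity.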

Substance: HSPE1_ + _198365089.23-P1P2_03 (guide GGTGACTCGCAGTCCGGCCC; listed as DNA, chemistry not fully specified)
- relative_activity_day10 (K562 CRISPRi cells [1]): 0.8198
- gamma_day5 (K562 CRISPRi cells [2]): −0.6427
- gamma_day10 (K562 CRISPRi cells [2]): −0.465
- relative_activity_day5 (K562 CRISPRi cells [2]): 0.9158

Substance: POLR1D_ + _28196016.23-P1_07 (guide GGGAAGCAAGGAGCGACCGA; listed as DNA, chemistry not fully specified)
- relative_activity_day10 (K562 CRISPRi cells [1]): 0.3911
- gamma_day5 (K562 CRISPRi cells [2]): −0.3019
- gamma_day10 (K562 CRISPRi cells [2]): −0.243
- relative_activity_day5 (K562 CRISPRi cells [2]): 0.3976

Substance: SEC61A1_ −_127771295.23-P1_00 (guide GGCACTGACGTGTCTCTCGG; listed as DNA, chemistry not fully specified)
- relative_activity_day10 (K562 CRISPRi cells [1]): 1
- gamma_day5 (K562 CRISPRi cells [2]): −0.92
- gamma_day10 (K562 CRISPRi cells [2]): −0.5629
- relative_activity_day5 (K562 CRISPRi cells [2]): 1

Substance: POLR1D_ + _28196016.23-P1_08 (guide GGGAAGCAGGGACCGACCGA; listed as DNA, chemistry not fully specified)
- relative_activity_day10 (K562 CRISPRi cells [1]): 1.017
- gamma_day5 (K562 CRISPRi cells [2]): −0.8088
- gamma_day10 (K562 CRISPRi cells [2]): −0.6317
- relative_activity_day5 (K562 CRISPRi cells [2]): 1.065

Substance: TUBB_ + _30688126.23-P1_06 (guide GCGGCAGGACGGTTCTGAGA; listed as DNA, chemistry not fully specified)
- relative_activity_day10 (K562 CRISPRi cells [1]): 0.7922
- gamma_day5 (K562 CRISPRi cells [2]): −0.7308
- gamma_day10 (K562 CRISPRi cells [2]): −0.5544
- relative_activity_day5 (K562 CRISPRi cells [2]): 0.8147

Substance: ALDOA_ + _30077139.23-P1P2_14 (guide GGTCACCAGGACCGCTTCTG; listed as DNA, chemistry not fully specified)
- relative_activity_day10 (K562 CRISPRi cells [1]): 0.4274
- gamma_day5 (K562 CRISPRi cells [2]): −0.1752
- gamma_day10 (K562 CRISPRi cells [2]): −0.1566
- relative_activity_day5 (K562 CRISPRi cells [2]): 0.4246

Substance: POLR2H_ + _184081251.23-P1P2_12 (guide GGGGCCACGAGAGCAGGAGA; listed as DNA, chemistry not fully specified)
- relative_activity_day10 (K562 CRISPRi cells [1]): 0.3595
- gamma_day5 (K562 CRISPRi cells [2]): −0.3516
- gamma_day10 (K562 CRISPRi cells [2]): −0.2298
- relative_activity_day5 (K562 CRISPRi cells [2]): 0.306

Substance: RPS18_ + _33239917.23-P1P2_01 (guide GCTGCAATGCCGCTGGATCA; listed as DNA, chemistry not fully specified)
- relative_activity_day10 (K562 CRISPRi cells [1]): 0.7514
- gamma_day5 (K562 CRISPRi cells [2]): −0.5598
- gamma_day10 (K562 CRISPRi cells [2]): −0.3779
- relative_activity_day5 (K562 CRISPRi cells [2]): 0.6853

Substance: ATP5E_ −_57607036.23-P1P2_01 (guide GGTGTCCTGGGGCACTCTGT; listed as DNA, chemistry not fully specified)
- relative_activity_day10 (K562 CRISPRi cells [1]): 1.016
- gamma_day5 (K562 CRISPRi cells [2]): −0.2097
- gamma_day10 (K562 CRISPRi cells [2]): −0.2284
- relative_activity_day5 (K562 CRISPRi cells [2]): 1.185

Substance: GNB2L1_ + _180670873.23-P1P2_02 (guide GTGCAAGACGGCGGCAGGAG; listed as DNA, chemistry not fully specified)
- relative_activity_day10 (K562 CRISPRi cells [1]): 0.4167
- gamma_day5 (K562 CRISPRi cells [2]): −0.1438
- gamma_day10 (K562 CRISPRi cells [2]): −0.1273
- relative_activity_day5 (K562 CRISPRi cells [2]): 0.4945

Substance: POLR2H_ + _184081251.23-P1P2_00 (guide GGGGCCACGAGAGCAGCAGA; listed as DNA, chemistry not fully specified)
- relative_activity_day10 (K562 CRISPRi cells [1]): 1
- gamma_day5 (K562 CRISPRi cells [2]): −1.149
- gamma_day10 (K562 CRISPRi cells [2]): −0.6391
- relative_activity_day5 (K562 CRISPRi cells [2]): 1

Substance: ALDOA_ + _30077139.23-P1P2_06 (guide GGTCACCAGGATCCCTTCTG; listed as DNA, chemistry not fully specified)
- relative_activity_day10 (K562 CRISPRi cells [1]): 0.951
- gamma_day5 (K562 CRISPRi cells [2]): −0.3967
- gamma_day10 (K562 CRISPRi cells [2]): −0.3485
- relative_activity_day5 (K562 CRISPRi cells [2]): 0.9611

Substance: COX11_ + _53045977.23-P1P2_00 (guide GGCTCTGGCGTCCTGGATGG; listed as DNA, chemistry not fully specified)
- relative_activity_day10 (K562 CRISPRi cells [1]): 1
- gamma_day5 (K562 CRISPRi cells [2]): −0.1817
- gamma_day10 (K562 CRISPRi cells [2]): −0.2988
- relative_activity_day5 (K562 CRISPRi cells [2]): 1

Substance: DBR1_ + _137893744.23-P1P2_05 (guide GTTTGCAGGAGTGTACACCC; listed as DNA, chemistry not fully specified)
- relative_activity_day10 (K562 CRISPRi cells [1]): 0.6323
- gamma_day5 (K562 CRISPRi cells [2]): −0.3102
- gamma_day10 (K562 CRISPRi cells [2]): −0.3094
- relative_activity_day5 (K562 CRISPRi cells [2]): 0.6809

Substance: RAN_ + _131356438.23-P1P2_00 (guide GGCGGTCGCTGCGCTTAGGG; listed as DNA, chemistry not fully specified)
- relative_activity_day10 (K562 CRISPRi cells [1]): 1
- gamma_day5 (K562 CRISPRi cells [2]): −0.1974
- gamma_day10 (K562 CRISPRi cells [2]): −0.1615
- relative_activity_day5 (K562 CRISPRi cells [2]): 1

Substance: MTOR_ + _11322547.23-P1P2_10 (guide GGGCAGGGGGCCTGAAGCAG; listed as DNA, chemistry not fully specified)
- relative_activity_day10 (K562 CRISPRi cells [1]): 0.4141
- gamma_day5 (K562 CRISPRi cells [2]): −0.3048
- gamma_day10 (K562 CRISPRi cells [2]): −0.2327
- relative_activity_day5 (K562 CRISPRi cells [2]): 0.4435

Substance: RPL9_ + _39460483.23-P1P2_07 (guide GGATGTTTCTGCGCTCGTGG; listed as DNA, chemistry not fully specified)
- relative_activity_day10 (K562 CRISPRi cells [1]): 0.3095
- gamma_day5 (K562 CRISPRi cells [2]): −0.2924
- gamma_day10 (K562 CRISPRi cells [2]): −0.2073
- relative_activity_day5 (K562 CRISPRi cells [2]): 0.2627

Substance: TUBB_ + _30688126.23-P1_10 (guide GCGGCAGGAAGGTTCAGAGA; listed as DNA, chemistry not fully specified)
- relative_activity_day10 (K562 CRISPRi cells [1]): 0.2073
- gamma_day5 (K562 CRISPRi cells [2]): −0.1978
- gamma_day10 (K562 CRISPRi cells [2]): −0.1451
- relative_activity_day5 (K562 CRISPRi cells [2]): 0.2205

Substance: GINS1_ −_25388381.23-P1P2_14 (guide GGACTAGAACGAAAGGAGCG; listed as DNA, chemistry not fully specified)
- relative_activity_day10 (K562 CRISPRi cells [1]): 0.3662
- gamma_day5 (K562 CRISPRi cells [2]): −0.3535
- gamma_day10 (K562 CRISPRi cells [2]): −0.2609
- relative_activity_day5 (K562 CRISPRi cells [2]): 0.3537

Substance: ATP5E_ −_57607036.23-P1P2_16 (guide GGTGTCCAGGGGCGCTCTGT; listed as DNA, chemistry not fully specified)
- relative_activity_day10 (K562 CRISPRi cells [1]): 0.7368
- gamma_day5 (K562 CRISPRi cells [2]): −0.1616
- gamma_day10 (K562 CRISPRi cells [2]): −0.1656
- relative_activity_day5 (K562 CRISPRi cells [2]): 0.9135

Substance: POLR2H_ + _184081251.23-P1P2_07 (guide GGGGCCACGAGTGCAGCAGA; listed as DNA, chemistry not fully specified)
- relative_activity_day10 (K562 CRISPRi cells [1]): 0.223
- gamma_day5 (K562 CRISPRi cells [2]): −0.1894
- gamma_day10 (K562 CRISPRi cells [2]): −0.1426
- relative_activity_day5 (K562 CRISPRi cells [2]): 0.1648

Substance: RPS14_ + _149829238.23-P1P2_04 (guide GAGGCCCGCGCGCGACAATC; listed as DNA, chemistry not fully specified)
- relative_activity_day10 (K562 CRISPRi cells [1]): 0.3919
- gamma_day5 (K562 CRISPRi cells [2]): −0.3025
- gamma_day10 (K562 CRISPRi cells [2]): −0.1958
- relative_activity_day5 (K562 CRISPRi cells [2]): 0.3825

Substance: RPS18_ + _33239917.23-P1P2_02 (guide GCTGGGATGCCGCTGGATCA; listed as DNA, chemistry not fully specified)
- relative_activity_day10 (K562 CRISPRi cells [1]): 0.6345
- gamma_day5 (K562 CRISPRi cells [2]): −0.4898
- gamma_day10 (K562 CRISPRi cells [2]): −0.3191
- relative_activity_day5 (K562 CRISPRi cells [2]): 0.5995

Substance: ALDOA_ + _30077139.23-P1P2_13 (guide GGTCACCAGGACCCCTTTTG; listed as DNA, chemistry not fully specified)
- relative_activity_day10 (K562 CRISPRi cells [1]): 0.0006011
- gamma_day5 (K562 CRISPRi cells [2]): 0.01706
- gamma_day10 (K562 CRISPRi cells [2]): −0.0002203
- relative_activity_day5 (K562 CRISPRi cells [2]): −0.04134

Substance: RPL9_ + _39460483.23-P1P2_05 (guide GGATGTTTCGGTGCTCGTGG; listed as DNA, chemistry not fully specified)
- relative_activity_day10 (K562 CRISPRi cells [1]): 0.5745
- gamma_day5 (K562 CRISPRi cells [2]): −0.6073
- gamma_day10 (K562 CRISPRi cells [2]): −0.3848
- relative_activity_day5 (K562 CRISPRi cells [2]): 0.5456
